Data on eleven compounds can be found in ChEMBL document CHEMBL1133015 (J Med Chem, 2000).

pIC50: −log10 of the molar value.

A word on the inhibition: it is the percentage by which the read-out fell short of the control. Read a high inhibition as a strong effect. By pIC50 is commonly meant the negative decadic logarithm of the IC50, by convention in mol/L. Higher therefore signals a low IC50. The term IC50 denotes the concentration at which inhibition is half-maximal.

Assay [1] relates to Substance-P receptor (Homo sapiens), P25103 [Q165A]. The assay can be described thus: Inhibition against Q165A mutant NK1 receptor expressed in CHO cells, using [125]SP as radioligand at 1 uM. It counts as cell-based.
Assay [2] has as its target T1, Substance-P receptor (Homo sapiens, UniProt P25103). In words: Tested for binding affinity against human wild type NK1 receptor expressed in CHO cells, using [125]SP as radioligand. It counts as cell-based.
The target of assay [3] is T2, Substance-K receptor (Homo sapiens, UniProt P21452).
T2 sequence (P21452 whole entry): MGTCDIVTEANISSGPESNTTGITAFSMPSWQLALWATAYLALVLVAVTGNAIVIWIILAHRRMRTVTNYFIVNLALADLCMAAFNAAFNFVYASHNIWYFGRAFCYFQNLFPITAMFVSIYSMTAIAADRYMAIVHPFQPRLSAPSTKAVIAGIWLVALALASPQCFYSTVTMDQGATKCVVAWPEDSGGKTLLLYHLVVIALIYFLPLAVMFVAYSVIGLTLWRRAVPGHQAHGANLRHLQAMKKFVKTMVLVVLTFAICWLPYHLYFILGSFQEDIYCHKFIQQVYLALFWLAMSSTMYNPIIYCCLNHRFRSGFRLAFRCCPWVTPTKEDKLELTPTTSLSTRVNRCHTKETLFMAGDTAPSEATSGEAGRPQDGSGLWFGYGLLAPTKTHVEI
The assay can be described thus: Tested for binding affinity against Tachykinin receptor 2 expressed in CHO cells, using [125]SP as radioligand. It counts as cell-based.

The target of assay [4] is T1, Substance-P receptor. The assay can be described thus: Tested for binding affinity against Tachykinin receptor 1 expressed in CHO cells, using [125]SP as radioligand. The format is cell-based.
Assay [5] addresses Substance-P receptor (Homo sapiens, UniProt P25103, H197A). In words: Tested for binding affinity against H197A mutant NK1 receptor using [125]SP radioligand in COS cells. It counts as cell-based.
Assay [6] deals with Substance-P receptor (Homo sapiens, UniProt P25103, H265A). The assay can be described thus: Tested for binding affinity against H265A mutant NK1 receptor using [125]SP radioligand in COS cells. It counts as cell-based.
Assay [7] has as its target Somatostatin receptor type 4 (Homo sapiens, UniProt P31391). In words: Tested for binding affinity against human somatostatin receptor subtype 4 (hSSTR4).
Assay [8] has as its target Somatostatin receptor. In words: Tested for binding affinity against somatostatin receptor on AtT-20 cells. It counts as cell-based. Conditions: att20; call rule not given here.
Assay [9] has as its target T1, Substance-P receptor. The assay can be described thus: Tested for binding affinity against Tachykinin receptor 1.
The target in assay [10] is T2, Substance-K receptor. In words: Tested for binding affinity against Tachykinin receptor 2 expressed in CHO cells, using [125]SP as radioligand; NA - did not bind. It counts as cell-based.
Assay [11] has as its target T1, Substance-P receptor. In words: Tested for binding affinity against Tachykinin receptor 1 expressed in CHO cells, using [125]SP as radioligand; NA - did not bind. It counts as cell-based.
Assay [12] deals with Substance-P receptor (Homo sapiens, UniProt P25103, Q165A). In words: Tested for binding affinity against Q165A mutant NK1 receptor expressed in CHO cells, using [125]SP as radioligand. The format is cell-based.
Assay [13] has as its target T1, Substance-P receptor. The assay can be described thus: Tested for binding affinity against Tachykinin receptor 1 expressed in CHO cells, using [125]SP as radioligand at 1 uM. It counts as cell-based.

T1 sequence (P25103 whole entry): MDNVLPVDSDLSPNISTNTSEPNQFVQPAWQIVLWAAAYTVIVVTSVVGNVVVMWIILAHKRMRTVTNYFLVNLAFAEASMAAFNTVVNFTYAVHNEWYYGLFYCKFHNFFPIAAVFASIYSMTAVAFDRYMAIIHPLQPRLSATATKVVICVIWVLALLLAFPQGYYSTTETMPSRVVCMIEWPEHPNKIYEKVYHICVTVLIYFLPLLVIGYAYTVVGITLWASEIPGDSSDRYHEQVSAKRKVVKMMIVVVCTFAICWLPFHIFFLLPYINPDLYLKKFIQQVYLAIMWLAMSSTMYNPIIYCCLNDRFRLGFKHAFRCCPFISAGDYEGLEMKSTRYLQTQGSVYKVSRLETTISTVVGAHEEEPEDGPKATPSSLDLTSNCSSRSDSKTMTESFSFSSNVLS
Substance-P receptor (Homo sapiens, UniProt P25103, H197A), sequence (P25103 whole entry H197A): as the sequence (P25103 whole entry) above, with H197A counted along it
Substance-P receptor (Homo sapiens, UniProt P25103, H265A), sequence (P25103 whole entry H265A): as the sequence (P25103 whole entry) above, with H265A counted along it
Substance-P receptor (Homo sapiens), P25103 [Q165A], sequence (P25103 whole entry Q165A): as the sequence (P25103 whole entry) above, with Q165A counted along it
Somatostatin receptor type 4, sequence (P31391 whole entry): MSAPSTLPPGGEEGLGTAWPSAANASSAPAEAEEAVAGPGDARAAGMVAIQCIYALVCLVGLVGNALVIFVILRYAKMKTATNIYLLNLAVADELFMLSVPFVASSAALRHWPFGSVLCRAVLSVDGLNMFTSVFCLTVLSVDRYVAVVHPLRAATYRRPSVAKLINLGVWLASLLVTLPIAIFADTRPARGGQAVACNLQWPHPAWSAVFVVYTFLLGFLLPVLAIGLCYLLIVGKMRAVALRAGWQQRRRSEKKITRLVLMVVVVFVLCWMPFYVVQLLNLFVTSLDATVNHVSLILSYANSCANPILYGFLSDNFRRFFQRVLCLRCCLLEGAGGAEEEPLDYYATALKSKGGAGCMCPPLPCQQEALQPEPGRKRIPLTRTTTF
Substance-P receptor (Homo sapiens, UniProt P25103, Q165A), sequence (P25103 whole entry Q165A): as the sequence (P25103 whole entry) above, with Q165A counted along it

Turning to `C[C@H](NC(=O)CN)C(=O)N[C@H]1CSSC[C@H](C(=O)O)NC(=O)[C@H](CO)NC(=O)[C@H]([C@@H](C)O)NC(=O)[C@H](Cc2ccccc2)NC(=O)[C@H]([C@@H](C)O)NC(=O)[C@H](Cc2ccc(F)cc2)NC(=O)[C@@H](Cc2c[nH]c3ccccc23)NC(=O)[C@H](Cc2ccccc2)NC(=O)[C@H](Cc2ccccc2)NC(=O)[C@H](CC(N)=O)NC(=O)[C@H](CCCCN)NC1=O`, the inhibition in assay [1] turned out to be 30%.

Turning to `C[C@@H](O)[C@@H]1NC(=O)[C@H](Cc2ccccc2)NC(=O)[C@H]([C@@H](C)O)NC(=O)[C@H](Cc2ccc(F)cc2)NC(=O)[C@@H](Cc2c[nH]c3ccccc23)NC(=O)[C@H](Cc2ccccc2)NC(=O)[C@H](Cc2ccccc2)NC(=O)[C@H](CC(N)=O)NC(=O)[C@H](CCCCN)NC(=O)[C@@H](N)CSSC[C@@H](C(=O)O)NC(=O)[C@H](CO)NC1=O`, the pIC50 was 6.59 in assay [2]; 7.34 in assay [3]; 6.60 in assay [4]; 6.05 in [5]; 5.02 in assay [6].

Take `C[C@H](NC(=O)CN)C(=O)N[C@H]1CSSC[C@@H](C(=O)O)NC(=O)[C@H](CO)NC(=O)[C@H]([C@@H](C)O)NC(=O)[C@H](Cc2ccccc2)NC(=O)[C@H]([C@@H](C)O)NC(=O)[C@H](Cc2ccc(F)cc2)NC(=O)[C@@H](Cc2c[nH]c3ccccc23)NC(=O)[C@H](Cc2ccccc2)NC(=O)[C@H](Cc2ccccc2)NC(=O)[C@H](CC(N)=O)NC(=O)[C@H](CCCCN)NC1=O`: the pIC50 in assay [2] was 6.62; in assay [3] it was 7.57; in [4], 6.66; in [5], 6.02; in assay [6], 5.21.

`C[C@@H](O)[C@@H]1NC(=O)[C@H](Cc2ccc(F)cc2)NC(=O)[C@@H](Cc2c[nH]c3ccccc23)NC(=O)[C@H](Cc2ccccc2)NC(=O)[C@H](Cc2ccccc2)NC(=O)[C@H](CC(N)=O)NC(=O)[C@H](CCCCN)NC(=O)[C@@H](N)CSSC[C@H](C(=O)O)NC(=O)[C@H](CO)NC(=O)[C@H]([C@@H](C)O)NC(=O)[C@H](Cc2ccccc2)NC1=O`: the inhibition in [1] amounted to 37%.

`C[C@H](NC(=O)CN)C(=O)N[C@H]1CSSC[C@@H](C(=O)O)NC(=O)[C@H](CO)NC(=O)[C@H]([C@@H](C)O)NC(=O)[C@H](Cc2ccccc2)NC(=O)[C@H]([C@@H](C)O)NC(=O)[C@H](CCCCN)NC(=O)[C@H](Cc2c[nH]c3ccccc23)NC(=O)[C@H](Cc2ccccc2)NC(=O)[C@H](Cc2ccccc2)NC(=O)[C@H](CC(N)=O)NC(=O)[C@H](CCCCN)NC1=O` gave a pIC50 in assay [3] of 6.07.

`C[C@@H](O)[C@@H]1NC(=O)[C@H](CCCCN)C2C(=O)[C@@H](Cc3c2[nH]c2ccccc32)NC(=O)[C@H](Cc2ccccc2)NC(=O)[C@@H]2CCCC2C(=O)[C@H](Cc2ccccc2)NC1=O` (stereo not given in full) showed a pIC50 in assay [7] of 7.00. For the same compound, the IC50 in assay [8] came out at 15000 nM.

The compound `C[C@@H](O)[C@@H]1NC(=O)[C@H](Cc2ccc(F)cc2)C2C(=O)[C@@H](Cc3c2[nH]c2ccccc32)NC(=O)[C@H](Cc2ccccc2)NC(=O)[C@@H]2CCCC2C(=O)[C@H](Cc2ccccc2)NC1=O` (stereo not given in full) showed a pIC50 in assay [9] of 7.55.

As for `C[C@H](NC(=O)CN)C(=O)N[C@H]1CSSC[C@H](C(=O)O)NC(=O)[C@H](CO)NC(=O)[C@H]([C@@H](C)O)NC(=O)[C@H](Cc2ccccc2)NC(=O)[C@H]([C@@H](C)O)NC(=O)[C@H](CCCCN)NC(=O)[C@@H](Cc2c[nH]c3ccccc23)NC(=O)[C@H](Cc2ccccc2)NC(=O)[C@H](Cc2ccccc2)NC(=O)[C@H](CC(N)=O)NC(=O)[C@H](CCCCN)NC1=O`, the IC50 result in assay [10] and in assay [11] was “Not Active” in each case.

For the compound `C[C@H](NC(=O)CN)C(=O)N[C@H]1CSSC[C@@H](C(=O)O)NC(=O)[C@H](CO)NC(=O)[C@H]([C@@H](C)O)NC(=O)[C@H](Cc2ccccc2)NC(=O)[C@H]([C@@H](C)O)NC(=O)[C@H](Cc2ccc(F)cc2)NC(=O)[C@H](Cc2c[nH]c3ccccc23)NC(=O)[C@H](Cc2ccccc2)NC(=O)[C@H](Cc2ccccc2)NC(=O)[C@H](CC(N)=O)NC(=O)[C@H](CCCCN)NC1=O`, the pIC50 in assay [2] is 5.85; in [3] it was 6.14; in assay [5], 5.57; in [12], 5.44; in assay [6] it was 5.09.

Consider `C[C@H](NC(=O)CN)C(=O)N[C@H]1CSSC[C@H](C(=O)O)NC(=O)[C@H](CO)NC(=O)[C@H]([C@@H](C)O)NC(=O)[C@H](Cc2ccccc2)NC(=O)[C@H]([C@@H](C)O)NC(=O)[C@H](CCCCN)NC(=O)[C@H](Cc2c[nH]c3ccccc23)NC(=O)[C@H](Cc2ccccc2)NC(=O)[C@H](Cc2ccccc2)NC(=O)[C@H](CC(N)=O)NC(=O)[C@H](CCCCN)NC1=O`, for which the inhibition in assay [13] stood at 7%.

`NCCCCCOC[C@H]1O[C@@H](OCCc2c[nH]c3ccccc23)[C@H](OCc2ccccc2)[C@@H](OCc2ccccc2)[C@@H]1OCc1ccccc1` had a pIC50 in assay [9] of 6.92.
